Measured values taken from patent publication US20040208783A1, “Process for the chemical and thermal disinfection” (priority 2003, published 2004).

Assays:
Type in all cases: cell-based
[1] = tested on: bacteria, fungi and mycobacteria; assay: Quantitative suspension tests, summary of activity in words
Staphylococcus aureus = assay: Quantitative suspension test, reduction factors (Test 1)
Method: (§1) Reduction factors were obtained with various solutions for use (SA=Staphylococcus aureus, PA=Pseudomonas aeruginosa, EC=Escherichia coli, CA=Candida albicans, AN=Aspergillus niger, MT=Mycobacterium terrae), initial microbe count 0.8−5×10^9/ml, for CA 2×10^7/ml, neutralizer Tryp-NaCl-TLSH (No. 22). Concerning the activity on Mycobacterium terrae, cf.
(§2) […] After acting for times of 5, 15, 30 and 60 minutes, 1 ml samples of the disinfectant/microbe mixture are taken and transferred into 9 ml of inactivation liquid (0.1% tryptone+0.85% NaCl in double-distilled water+inactivators). After a contact time not exceeding 30 minutes in the inactivation liquid, dilutions (10^−2 and 10^−4 in 0.1% tryptone+0.85% NaCl in double-distilled water) are made up. 0.1 ml samples of the inactivation liquid and the two dilutions are then transferred by spatula onto 3 CSA plates for each. As a control, the respective test microbe suspension is mixed with 10 ml of WSH in place of disinfectant. Subcultures are to be set up from this batch in the same way in parallel with the corresponding action times.
(§3) All subcultures are incubated at 37° C. for 48 hours, in the case of Candida albicans at 37° C. for 72 hours, and the colonies are counted. The reduction is calculated as follows: CFU between 20 and 300 per CSA plate are to be evaluated. After determination of the arithmetic mean of three values, the disinfectant effect (GRt) per unit time is calculated from the formula GRt=logCFU(co) minus logCFU(D) in which CFU(co) is the number of CFU per ml without exposure to the product, and CFU(D) is the number of CFU per ml after exposure to the product.

Pseudomonas aeruginosa = assay: as above
Method: as §1, §2, §3

Aspergillus niger = assay: as above
Method: as §1, §2, §3

Candida albicans = assay: as above
Method: as §1, §2, §3

Escherichia coli = assay: as above
Method: as §1, §2, §3

[2] = tested on: Mycobacterium terrae (ATCC15755); assay: Mycobacterium terrae quantitative suspension test without stress (Test 2); details: for Reduction factor: 0.1%

## CCCCC(CC)COCC(O)CO (centres unmarked) [SC 50, 1-(2-Ethylhexyl)glycerol ether]
[1]; 0.1% by weight solution, 50° C.
  Activity (in words): broad activity on gram-positive and gram-negative bacteria, yeasts and mycobacteria
[1]; 0.1% by weight, low temperature
  Activity (in words): virtually no antimicrobial activity
[1]; above 25° C.
  Activity on bacteria (gram-positive and gram-negative) and mycobacteria (in words): particularly active
[1]; use concentration 0.1% by weight
  Activity on yeasts (e.g. Candida albicans) and moulds (e.g. Aspergillus niger) (in words): still requires improvement
Staphylococcus aureus; 0.05%, 30° C., 15′
  Reduction factor: 0.00
Staphylococcus aureus; 0.05%, 30° C., 30′
  Reduction factor: 0.00
Staphylococcus aureus; 0.05%, 30° C., 60′
  Reduction factor: 0.00
Staphylococcus aureus; 0.05%, 40° C., 15′
  Reduction factor: 0.70
Staphylococcus aureus; 0.05%, 40° C., 30′
  Reduction factor: 0.88
Staphylococcus aureus; 0.05%, 40° C., 60′
  Reduction factor: 0.57
Staphylococcus aureus; 0.05%, 50° C., 15′
  Reduction factor: 0.58
Staphylococcus aureus; 0.05%, 50° C., 30′
  Reduction factor: 0.81
Staphylococcus aureus; 0.05%, 50° C., 60′
  Reduction factor: 0.29
Staphylococcus aureus; 0.05%, room temperature, 15′
  Reduction factor: 0.00
Staphylococcus aureus; 0.05%, room temperature, 30′
  Reduction factor: 0.00
Staphylococcus aureus; 0.05%, room temperature, 60′
  Reduction factor: 0.00
Staphylococcus aureus; 0.1%, 30° C., 15′
  Reduction factor: 0.78
Staphylococcus aureus; 0.1%, 30° C., 30′
  Reduction factor: 0.53
Staphylococcus aureus; 0.1%, 30° C., 60′
  Reduction factor: 0.35
Staphylococcus aureus; 0.1%, 40° C., 15′
  Reduction factor: 0.97
Staphylococcus aureus; 0.1%, 40° C., 30′
  Reduction factor: 1.56
Staphylococcus aureus; 0.1%, 40° C., 60′
  Reduction factor: 1.45
Staphylococcus aureus; 0.1%, 50° C., 15′
  Reduction factor: 2.44
Staphylococcus aureus; 0.1%, 50° C., 30′
  Reduction factor: 4.93
Staphylococcus aureus; 0.1%, 50° C., 60′
  Reduction factor: 4.70
Staphylococcus aureus; 0.1%, room temperature, 15′
  Reduction factor: 0.00
Staphylococcus aureus; 0.1%, room temperature, 30′
  Reduction factor: 0.00
Staphylococcus aureus; 0.1%, room temperature, 60′
  Reduction factor: 0.96
Pseudomonas aeruginosa; 0.05%, 30° C., 15′
  Reduction factor: 0.00
Pseudomonas aeruginosa; 0.05%, 30° C., 30′
  Reduction factor: 0.00
Pseudomonas aeruginosa; 0.05%, 30° C., 60′
  Reduction factor: 0.00
Pseudomonas aeruginosa; 0.05%, 40° C., 15′
  Reduction factor: 0.00
Pseudomonas aeruginosa; 0.05%, 40° C., 30′
  Reduction factor: 0.00
Pseudomonas aeruginosa; 0.05%, 40° C., 60′
  Reduction factor: 0.00
Pseudomonas aeruginosa; 0.05%, 50° C., 15′
  Reduction factor: 0.00
Pseudomonas aeruginosa; 0.05%, 50° C., 30′
  Reduction factor: 0.85
Pseudomonas aeruginosa; 0.05%, 50° C., 60′
  Reduction factor: 0.96
Pseudomonas aeruginosa; 0.05%, room temperature, 15′
  Reduction factor: 0.00
Pseudomonas aeruginosa; 0.05%, room temperature, 30′
  Reduction factor: 0.00
Pseudomonas aeruginosa; 0.05%, room temperature, 60′
  Reduction factor: 0.00
Pseudomonas aeruginosa; 0.1%, 30° C., 15′
  Reduction factor: 0.00
Pseudomonas aeruginosa; 0.1%, 30° C., 30′
  Reduction factor: 0.00
Pseudomonas aeruginosa; 0.1%, 30° C., 60′
  Reduction factor: 1.01
Pseudomonas aeruginosa; 0.1%, 40° C., 15′
  Reduction factor: 1.03
Pseudomonas aeruginosa; 0.1%, 40° C., 30′
  Reduction factor: 1.10
Pseudomonas aeruginosa; 0.1%, 40° C., 60′
  Reduction factor: 1.14
Pseudomonas aeruginosa; 0.1%, 50° C., 15′
  Reduction factor: 3.55
Pseudomonas aeruginosa; 0.1%, 50° C., 30′
  Reduction factor: 3.50
Pseudomonas aeruginosa; 0.1%, 50° C., 60′
  Reduction factor: 4.00
Pseudomonas aeruginosa; 0.1%, room temperature, 15′
  Reduction factor: 0.00
Pseudomonas aeruginosa; 0.1%, room temperature, 30′
  Reduction factor: 0.00
Pseudomonas aeruginosa; 0.1%, room temperature, 60′
  Reduction factor: 0.00
Aspergillus niger; 0.05%, 30° C., 15′
  Reduction factor: 0.08
Aspergillus niger; 0.05%, 30° C., 30′
  Reduction factor: 0.70
Aspergillus niger; 0.05%, 30° C., 60′
  Reduction factor: 0.60
Aspergillus niger; 0.05%, 50° C., 15′
  Reduction factor: 0.12
Aspergillus niger; 0.05%, 50° C., 30′
  Reduction factor: 0.12
Aspergillus niger; 0.05%, 50° C., 60′
  Reduction factor: −0.12
Aspergillus niger; 0.05%, room temperature, 15′
  Reduction factor: 0.30
Aspergillus niger; 0.05%, room temperature, 30′
  Reduction factor: −0.10
Aspergillus niger; 0.05%, room temperature, 60′
  Reduction factor: 0.22
Aspergillus niger; 0.1%, 30° C., 15′
  Reduction factor: 0.30
Aspergillus niger; 0.1%, 30° C., 30′
  Reduction factor: 0.70
Aspergillus niger; 0.1%, 30° C., 60′
  Reduction factor: 0.60
Aspergillus niger; 0.1%, 50° C., 15′
  Reduction factor: −0.10
Aspergillus niger; 0.1%, 50° C., 30′
  Reduction factor: 0.30
Aspergillus niger; 0.1%, 50° C., 60′
  Reduction factor: 0.18
Aspergillus niger; 0.1%, room temperature, 15′
  Reduction factor: −0.35
Aspergillus niger; 0.1%, room temperature, 30′
  Reduction factor: −0.10
Aspergillus niger; 0.1%, room temperature, 60′
  Reduction factor: 0.40
Candida albicans; 0.05%, 30° C., 15′
  Reduction factor: 0.00
Candida albicans; 0.05%, 30° C., 30′
  Reduction factor: 0.00
Candida albicans; 0.05%, 30° C., 60′
  Reduction factor: 0.00
Candida albicans; 0.05%, 40° C., 15′
  Reduction factor: 0.54
Candida albicans; 0.05%, 40° C., 30′
  Reduction factor: 0.45
Candida albicans; 0.05%, 40° C., 60′
  Reduction factor: 0.59
Candida albicans; 0.05%, 50° C., 15′
  Reduction factor: 0.00
Candida albicans; 0.05%, 50° C., 30′
  Reduction factor: 0.00
Candida albicans; 0.05%, 50° C., 60′
  Reduction factor: 1.08
Candida albicans; 0.05%, room temperature, 15′
  Reduction factor: 0.00
Candida albicans; 0.05%, room temperature, 30′
  Reduction factor: 0.00
Candida albicans; 0.05%, room temperature, 60′
  Reduction factor: 0.00
Candida albicans; 0.1%, 30° C., 15′
  Reduction factor: 0.10
Candida albicans; 0.1%, 30° C., 30′
  Reduction factor: −0.08
Candida albicans; 0.1%, 30° C., 60′
  Reduction factor: 0.64
Candida albicans; 0.1%, 40° C., 15′
  Reduction factor: 0.55
Candida albicans; 0.1%, 40° C., 30′
  Reduction factor: 0.46
Candida albicans; 0.1%, 40° C., 60′
  Reduction factor: 0.65
Candida albicans; 0.1%, 50° C., 15′
  Reduction factor: 1.07
Candida albicans; 0.1%, 50° C., 30′
  Reduction factor: 1.53
Candida albicans; 0.1%, 50° C., 60′
  Reduction factor: 4.20
Candida albicans; 0.1%, room temperature, 15′
  Reduction factor: 0.00
Candida albicans; 0.1%, room temperature, 30′
  Reduction factor: 0.00
Candida albicans; 0.1%, room temperature, 60′
  Reduction factor: 0.00
Escherichia coli; 0.05%, 30° C., 15′
  Reduction factor: 0.13
Escherichia coli; 0.05%, 30° C., 30′
  Reduction factor: 0.25
Escherichia coli; 0.05%, 30° C., 60′
  Reduction factor: 0.36
Escherichia coli; 0.05%, 40° C., 15′
  Reduction factor: 0.00
Escherichia coli; 0.05%, 40° C., 30′
  Reduction factor: 0.00
Escherichia coli; 0.05%, 40° C., 60′
  Reduction factor: 0.00
Escherichia coli; 0.05%, 50° C., 15′
  Reduction factor: 1.17
Escherichia coli; 0.05%, 50° C., 30′
  Reduction factor: 1.70
Escherichia coli; 0.05%, 50° C., 60′
  Reduction factor: 2.85
Escherichia coli; 0.05%, room temperature, 15′
  Reduction factor: 0.00
Escherichia coli; 0.05%, room temperature, 30′
  Reduction factor: 0.43
Escherichia coli; 0.05%, room temperature, 60′
  Reduction factor: 0.25
Escherichia coli; 0.1%, 30° C., 15′
  Reduction factor: 0.54
Escherichia coli; 0.1%, 30° C., 30′
  Reduction factor: 0.58
Escherichia coli; 0.1%, 30° C., 60′
  Reduction factor: 1.15
Escherichia coli; 0.1%, 40° C., 15′
  Reduction factor: 1.84
Escherichia coli; 0.1%, 40° C., 30′
  Reduction factor: 3.27
Escherichia coli; 0.1%, 40° C., 60′
  Reduction factor: 3.46
Escherichia coli; 0.1%, 50° C., 15′
  Reduction factor: 3.74
Escherichia coli; 0.1%, 50° C., 30′
  Reduction factor: 4.95
Escherichia coli; 0.1%, 50° C., 60′
  Reduction factor: 4.90
Escherichia coli; 0.1%, room temperature, 15′
  Reduction factor: 0.00
Escherichia coli; 0.1%, room temperature, 30′
  Reduction factor: 0.54
Escherichia coli; 0.1%, room temperature, 60′
  Reduction factor: 0.50
[2]; 0.05% by weight, 50° C., 60 minutes
  Activity on Mycobacterium terrae (in words): neither 0.05% by weight SC 50 nor 0.75% by weight POE, even acting for a time of 60 minutes, display any activity
[2]; 30° C., 15′
  Reduction factor: 0.00
[2]; 30° C., 30′
  Reduction factor: 0.00
[2]; 30° C., 60′
  Reduction factor: 0.00
[2]; 40° C., 15′
  Reduction factor: 0.00
[2]; 40° C., 30′
  Reduction factor: 0.00
[2]; 40° C., 60′
  Reduction factor: 0.00
[2]; 50° C., 15′
  Reduction factor: 3.10
[2]; 50° C., 30′
  Reduction factor: 3.34
[2]; 50° C., 60′
  Reduction factor: 3.48
[2]; room temperature, 15′
  Reduction factor: 0.00
[2]; room temperature, 30′
  Reduction factor: 0.00
[2]; room temperature, 60′
  Reduction factor: 0.00
